Patent US9642897B2, “Treatment of bone diseases” (THE UNIVERSITY OF SYDNEY, priority 2011, dated 2017)
“Also recorded” adds a separate entry of the source.

Tests used:
[1] = test system: mesenchymal stem cells (MSC); assay: Mineralization (alizarin red staining) of osteogenic differentiating MSC; type: cell-based, human; conditions: MSC in OIM, 2 weeks
Experimental: Human mesenchymal stem cells (MSC) (BioWhittaker, Walkersville, Md., USA) were plated at a density of 5×10^5 cells per well in 150 cm^2 dishes containing MSC growth medium (GM) (BioWhittaker, Walkersville, Md., USA) with 10% fetal calf serum (FCS) and incubated at 37° C. After the cells reached 60% confluence, media was replaced with either GM or osteoblastogenesis induction media (OIM) (prepared with MSCGM, 10% FCS, […] dexamethasone, 10 mmol/L β glycerol phosphate and 50 μg/mL ascorbic acid) for 21 days. Media was changed every three days. Media obtained at the beginning of the 1st, 2nd and 3rd wk of differentiation as well as conditioned media were collected for measurement of IFNγ. Concentrations of IFNγ in the conditioned media were measured from both GM and OM treated cells using Human […] DuoSet ELISA Development Kit (R&D Systems, Minneapolis, Mich., USA). To compare between the osteogenic and the immune effect of IFNγ, Jurkat cells and human T lymphocytes were plated at a density of 5×10^5 cells per well in 150 cm^2 dishes containing RPMI media.
Subsequently, the effect of chemical inhibition/stimulation of the intermediate and end products of kynurenine activation on osteogenic differentiating MSC was then characterised.
These compounds were added to the MSC media on day one of differentiation. Cells were treated for […]. Media was changed every three days. After three weeks of treatment, osteoblastogenesis and changes in osteogenic genes were quantified as described above.

[2] = Therapeutic safety of oral PA: weight, water consumption, survival; type: in vivo, C57BL/6 mice; conditions: for Weight: after 6 weeks; for Water left: initial volume 500 mL, weekly average
Experimental: (§1) Nine-month-old oophorectomised (OVX) and SHAM-operated C57BL/6 mice (n=24 per group) were obtained from the Animal Resources Centre (Perth, Wash.). After 2 weeks of acclimation, mice were divided into four groups (Table 2) and received treatment in their drinking water for a total of 6 weeks. Mice treated with plain water were used as controls. Mice were housed in cages in a limited access room.
Water left in the bottle (initial volume of 500 mL) was also quantified every week. […] These volumes correspond with the drinking pattern previously reported in this mouse model. (iii) Effect of Oral PA on Mineral Absorption in OVX Mice

[3] = test system: OVX C57BL/6 mice (osteoporosis model); assay: Bone histology and dynamic histomorphometry in Sham and OVX mice; type: in vivo
From the text: as §1
For dynamic histomorphometry, tetracycline labelling was achieved through the intraperitoneal injection of demeclocycline (20 mg/kg) (Sigma Chemicals, St. Louis, Mo., USA) to the three treated groups at 5 and 2 days before sacrifice. One side femur from each animal in each group was removed at the time of killing, fixed in 70% ethanol, dehydrated, and embedded undecalcified in methylmethacrylate (J-T Baker, Phillipsburg, N.J., USA). At 50 μm intervals, longitudinal sections of 5 and 8 μm thick were cut using a polycut-E microtome (Reichert-Jung Leica, Heerbrugg, Switzerland), placed on gelatine-coated glass slides, deplastified and stained with Goldner's trichrome. Histomorphometry was done with a semi-automatic image analysing system combining a microscope equipped with a camera lucida and digitizing tablet linked to a computer using the OsteoMeasure Software (Osteometrics Inc., Decatur, Ga., USA). Nomenclature and abbreviations of histomorphometric parameters follow the recommendations of the American Society of Bone and Mineral Research (see Parfitt et al. (1987), “Bone histomorphometry: Standardization of nomenclature, symbols and units”, J Bone Miner Res., 2: 595-610.)

Runx2 and OCN = assay: RT-PCR of Runx2 and OCN in bone marrow cells of PA-treated mice; type: in vivo, C57BL/6 mice; conditions: all PA-treated groups vs vehicle
Experimental: Bone marrow cells were flushed and isolated as previously described. Total RNA was extracted from marrow cells using a QIAGEN RNeasy Mini extraction kit following manufacturer's instructions (QIAGEN Pty, Doncaster, VIC, Australia; cat#74104). First strand complementary DNA (cDNA) synthesis was performed using 200 ng of total RNA, 50 ng random hexamers and 50 units reverse transcriptase at 42° C. for 1 hour, as described by manufacturer (Bioline Australia Pty, Alexandria, NSW, Australia; cat# BIO-65025). Real-time PCR for expressed genes as markers for osteogenesis was performed in duplicate in a total reaction volume of 25 μl, 10% of which was cDNA (or water for non-template control), 3 mM MgCl2 and 250 nM of each forward and reverse specific primer for target genes and normalizer. Primers for specific detection of mRNA expression included: […]
All PCRs were performed in a Corbett Rotor-Gene™ 3000 (QIAGEN Pty) using SYBR green with no-ROX reaction mix and a standard thermal profile as described by supplier (Bioline Australia Pty, Alexandria, NSW, Australia; cat# QT6750-02). Quantitative RT-PCR data was defined by threshold cycle (Ct) normalized for the housekeeping gene glyceraldehyde-3-phosphate dehydrogenase (GAPDH): […]

In the case of `O=C(O)c1ccccn1` [PA, pyridine-2-carboxylic acid], the “osteoblastogenesis / mineralisation (alizarin red)” value [1] is reported as “accelerated mineralisation; also recorded: stimulate osteoblastogenesis”, the Weight ([2]; OVX, PA250 (250 mg/kg/d)) is reported as 26 ± 1.6 gm and the Water left ([2]; OVX, PA250) is reported as 195 ± 28 ml/week. The Weight ([2]; OVX, PA500 (500 mg/kg/d)) was 28 ± 0.4 gm, the Water left ([2]; OVX, PA500) was 195 ± 35 ml/week and the Weight ([2]; OVX, PA1000 (1 gm/kg/d)) was 26 ± 1.3 gm. It also gave a Water left ([2]; OVX, PA1000) of 250 ± 38 ml/week, a Weight ([2]; Sham, PA250 (250 mg/kg/d)) of 27 ± 2.0 gm and a Water left ([2]; Sham, PA250) of 200 ± 32 ml/week. It also gave a Weight ([2]; Sham, PA500 (500 mg/kg/d)) of 26 ± 2.4 gm, a Water left ([2]; Sham, PA500) of 155 ± 35 ml/week and a Weight ([2]; Sham, PA1000 (1 gm/kg/d)) of 26 ± 1.3 gm. The Water left ([2]; Sham, PA1000) was 260 ± 45 ml/week, the mice survival rate ([2]; female, C57BL/6, mouse, in vivo, po, 6 weeks) was 100% and the side effects ([2]; oral PA 6 weeks) was “no evidence of side effects”. For the same molecule, the “weight and water consumption vs vehicle-treated controls” value ([2]; oral PA 6 weeks) was “no difference”, the “bone turnover (fluorochrome double labelling)” value ([3]; Sham and OVX mice, oral PA 6 weeks) was “significant and dose-dependent increase in bone turnover” and the “mineral apposition rates (MAR)” value ([3]; trabecular and cortical bone, vs vehicle) was “increased mineral apposition rates”. The “mineralized bone (Von Kossa labelling)” value ([3]; vs untreated controls) was “higher levels of mineralized bone” and the “mRNA levels of osteogenic genes Runx2 and OCN” value (Runx2 and OCN) was “higher levels”.
